US20240074473A1, “METHOD FOR INDUCING HYPERTROPHIC MUSCLE FIBERS FOR INDUSTRIAL MEAT PRODUCTION” (Yeda Research and Development Co. Ltd., priority 2021, published 2024)
Structures can show the parent of a compound that is named as a salt. Where two headings read alike, the source gives them in different places.

Assays:
[1] = Risk categorization of cell culture media ingredients
Text: Category 1: These cell culture media components are food ingredients/additives that are GRAS or permitted by federal regulation without limitation on use. Exemplary compounds in this category include innocuous ingredients such as sugars, pH buffers, water soluble vitamins, and common antioxidants such as tocopherols.
Category 2: These cell culture media components are common dietary nutrients and are anticipated to have GRAS status for food use or be permitted by regulation for addition to food. Examples of such compounds include most of the inorganic salts and macronutrients that are present within the cell culture media. […] Majority of nutrients present within the poultry cell-based meat may be readily measured using common validated methods for food composition testing. Batch analyses of multiple lots of the finished product may be obtained to validate the above assumptions. In some instances, consideration of established safe levels (e.g., ADI, UL) derived from a relevant authoritative body (e.g., U.S. FDA, EFSA, JECFA, FSANZ, U.S. EPA) may be leveraged to support safety. If comparisons of anticipated dietary intakes relative to an authoritative reference intake value is used, consideration of additive intakes from all dietary sources may be considered. In the absence of an authoritative reference intake value, published NOAELs from animal toxicology studies may be used to evaluate safety using standard scientific procedures for food safety evaluation. A margin of exposure (MoE) of 100-fold or greater between the NOAEL and estimated dietary intakes from food exposures is typically considered adequate to support safety. in situations where the MoE is <100-fold, additional measures for further reduction of the media component may be necessary, or further characterization of intraspecies/interspecies differences in metabolism may be necessary. These situations also require careful consideration of the regulatory status on a case-by basis (e.g., premarket approval as a food additive or GRAS evaluation required).
For example, situations where the compound is not detectable in finished product or is present at equivalent levels in comparator foods, compounds that are thermo-labile and will be digested during cooking, and/or compounds that are expected to be digested to innocuous compounds following ingestion. Examples of compounds meeting the aforementioned conditions would include recombinant growth factors and serum components. For Category 3 substances a final consideration in the safety assessment process may involve hazard characterization of the potential for a substance to produce toxic biological effects outside of the endpoints measured in a sub-chronic rat toxicity study. Substances with biological activity may require additional hazard characterization related to reproductive and developmental toxicity, or immunotoxicity. Considerations for allergenicity, biological effects in humans (e.g., effects on blood pressure), and synergistic effects with other media components also may be evaluated. […] Examples of category 3 components include recombinant proteins and animal serum.

[2] = cited from earlier work; for Safe Reference Level for Human Dietary Intake: Iron UL: as iron
[3] = Maximum estimated dietary exposure to media ingredients per 100 g serving; conditions: assumption of complete transfer of media components to the finished product on a wt/wt basis
[4] = cell culture media ingredient used during meat production
[5] = human dietary intake, niacinamide and magnesium sulfate: supplements

Compound | Risk Assessment Category [1, 4] | Maximum Estimated Exposure per 100 g serving [3] [mg] | Risk Assessment Category [1] | also measured
CC(=O)Oc1c(C)c(C)c2c(c1C)CCC(C)(CCCC(C)CCCC(C)CCCC(C)C)O2 (racemic) [DL-ALPHA-TOCOPHEROL ACETATE] | 1 | 8 |  | Safe Reference Level for Human Dietary Intake: UL (Tolerable Upper Limit) ([2]; human dietary intake): UL = 1000 mg/d
[Ca+2].[Cl-].[Cl-] [CALCIUM CHLORIDE (ANHY)] | 1 | 760 |  | Safe Reference Level for Human Dietary Intake (kind of level not given) ([2]; human dietary intake): 1 to 3 g/day
Cc1c(C)c2c(c(C)c1O)CC[C@@](C)(CCC[C@H](C)CCC[C@H](C)CCCC(C)C)O2 [D-ALPHA-TOCOPHEROL] | 1 | 1.6 |  | Safe Reference Level for Human Dietary Intake: UL (Tolerable Upper Limit) ([2]; human dietary intake): UL = 1000 mg/d
O.O.O.O.O.O.O.O=S(=O)([O-])[O-].[Fe+2] [FERROUS SULFATE-7H2O] |  | 2.5 | 2 | Safe Reference Level for Human Dietary Intake: Iron UL ([2]; human dietary intake): Iron UL = 40 to 45 mg
CCCCC/C=C\C/C=C\CCCCCCCC(=O)O [LINOLEIC ACID] |  | 1 | 2 | Safe Reference Level for Human Dietary Intake: AI (Adequate Intake) ([2]; human dietary intake): AI = 7 to 12 g/d
[Cl-].[Cl-].[Mg+2] [MAGNESIUM CHLORIDE (ANHY)] | 1 | 170 |  | Safe Reference Level for Human Dietary Intake (kind of level not given) ([2]; human dietary intake): 65 to 350 mg
O=S(=O)([O-])[O-].[Mg+2] [MAGNESIUM SULFATE (ANHY)] | 1 | 493 |  | Safe Reference Level for Human Dietary Intake: UL (Tolerable Upper Limit) [2, 5]: UL = 65 to 350 mg
O.O=S(=O)([O-])[O-].[Mn+2] [MANGANESE SULFATE H2O] | 1 | 0.003 |  | Safe Reference Level for Human Dietary Intake (kind of level not given) ([2]; human dietary intake): 0.002 to 0.011 g/day
NC(=O)c1cccnc1 [NIACINAMIDE (NICOTINAMIDE), NIACINAMIDE] |  | 25 | 1 | Safe Reference Level for Human Dietary Intake: UL (Tolerable Upper Limit) [2, 5]: UL = 10 to 35 mg
[Cl-].[K+] [POTASSIUM CHLORIDE] | 1 | 4000 |  | Safe Reference Level for Human Dietary Intake (UL) given as symbol ([2]; human dietary intake): UL = NS
CC(=O)C(=O)[O-].[Na+] [SODIUM PYRUVATE] | 3 | 1000 |  | Safe Reference Level for Human Dietary Intake, in words ([2]; dietary intakes within the range of OSL values reported in human investigations): Dietary intakes within
Cc1ncc(C[n+]2csc(CCO)c2C)c(N)n1 [THIAMINE-HCL] |  | 18 | 1 | Safe Reference Level for Human Dietary Intake (UL) given as symbol ([2]; human dietary intake): UL = NS
CCCCCCCC/C=C\CCCCCCCC(=O)OCCOCC(OCCO)C1OCC(OCCO)C1OCCO (centres unmarked) [TWEEN 80] | 2 | 4 |  | Safe Reference Level for Human Dietary Intake: ADI (Acceptable Daily Intake) ([2]; human dietary intake): ADI = 10 mg/kg bw/d
C=C1CC[C@H](O)C/C1=C/C=C1\CCC[C@]2(C)[C@@H]([C@H](C)/C=C/[C@H](C)C(C)C)CC[C@@H]12 [VITAMIN D2 (ERGOCALCIFEROL), ERGOCALCIFEROL] |  | 0.024 | 1 | Safe Reference Level for Human Dietary Intake: UL (Tolerable Upper Limit) ([2]; human dietary intake): UL = 100 ug/d
O.O.O.O.O.O.O.O=S(=O)([O-])[O-].[Zn+2] [ZINC SULFATE-7H20] |  | 15 | 1 | Safe Reference Level for Human Dietary Intake: UL (Tolerable Upper Limit) ([2]; human dietary intake): UL = 5 to 40 mg/day
CALCIUM D-PANTOTHENATE |  | 100 |  | Safe Reference Level for Human Dietary Intake (UL) given as symbol ([2]; human dietary intake): UL = NS
COPPER SULFATE-PENTAHYDRATE |  | 3 |  | Safe Reference Level for Human Dietary Intake (kind of level not given) ([2]; human dietary intake): 1 to 10 mg
FERRIC CITRATE |  |  |  | Safe Reference Level for Human Dietary Intake: Iron UL ([2]; human dietary intake): Iron UL = 40 to 45 mg
